Experiment in all cases: inhibition of tumour cell growth, NCI panel, 48 h
Assay [1] deals with NCI-H23.
In assay [2] the test system is OVCAR-4.
For assay [3], the system named is NCI-H460.
Assay [4] deals with Malme-3M.
Assay [5] concerns SW-620.
Assay [6] concerns EKVX.
In assay [7] the test system is NCI-H226.
Assay [8] relates to UACC-62.
Assay [9] deals with U-251.
For assay [10], the system named is HL-60.
The subject of assay [11] is OVCAR-5.
Assay [12] relates to CCRF-CEM.
Assay [13] deals with K562.
The test system of assay [14] is OVCAR-8.
The subject of assay [15] is OVCAR-3.
Assay [16] deals with A549.
Assay [17] concerns SN12C.
Assay [18] relates to NCI-H522.
Assay [19] relates to UO-31.
Assay [20] has as its system SK-MEL-2.

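Five compound concentrations were applied to cells in 96-well plates for 48 hours; endpoints were derived by simple linear interpolation of the resulting dose-response curve. Abbreviation: GI50, concentration required for 50% inhibition of growth.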 Calls of active or inactive are those of the source. Cut-off read from the data, not from the text of the source: active = GI50 up to about 1.1 µM and inactive = higher.

Turning to `O=C1C=C(C2OC(CO)C(O)C2O)C(=O)N1` (stereo not given), the GI50 in assay [1] was > 100 µM (inactive); in assay [2], > 100 µM (inactive); in assay [3], > 100 µM (inactive); in assay [4] it was > 100 µM (inactive); in assay [5] it was 26 µM (inactive); in [6] it was > 100 µM (inactive). Besides, the GI50 was > 100 µM (inactive) in assay [7]; > 100 µM (inactive) in assay [8]; > 100 µM (inactive) in assay [9]; 45.9 µM (inactive) in assay [10]; > 100 µM (inactive) in assay [11]; 32.5 µM (inactive) in [12]. Also, the GI50 in assay [13] is 47.6 µM (inactive); in assay [14], > 100 µM (inactive); in assay [15], > 100 µM (inactive); in [16], > 100 µM (inactive); in [17], > 100 µM (inactive); in [18] it was 19.8 µM (inactive). The GI50 in assay [19] and in [20] was > 100 µM (inactive) each time.
As for `CCCCCCCSCC(O)COC(c1ccccc1)(c1ccccc1)c1ccccc1` (stereo not given), the GI50 is 14.8 µM (inactive) in [1]; 49.9 µM (inactive) in [2]; 30.1 µM (inactive) in assay [3]; 60 µM (inactive) in assay [4]; 78 µM (inactive) in assay [5]; 53 µM (inactive) in [6]. Further, the GI50 in [7] is 18.1 µM (inactive); in assay [8], 65.8 µM (inactive); in assay [9] it was 50.9 µM (inactive); in assay [10], 26.9 µM (inactive); in assay [11] it was 34.8 µM (inactive); in [12], 29.7 µM (inactive). In addition, the GI50 in assay [13] was 54.6 µM (inactive); in assay [14] it was 61.8 µM (inactive); in [15], 29.2 µM (inactive); in assay [16], 26.7 µM (inactive); in assay [17] it was 37.7 µM (inactive); in assay [18] it was 35.2 µM (inactive). Besides, the GI50 in [19] is 5.81 µM (inactive); in assay [20] it was 18.3 µM (inactive).
In the case of `COc1ccc(CN2C(=O)C(=O)N(C)C2=O)c2ccccc12`, the GI50 in [1], in assay [2], in assay [3], in assay [4], in assay [5] and in assay [6] was > 10 µM (inactive) in each case. Besides, the GI50 in assay [7], in assay [8], in assay [9], in assay [10], in [11] and in [12] was > 10 µM (inactive) throughout. In addition, the GI50 was > 10 µM (inactive) in assay [13]; > 10 µM (inactive) in [14]; > 10 µM (inactive) in assay [15]; > 10 µM (inactive) in assay [16]; > 10 µM (inactive) in assay [17]; 9.68 µM (inactive) in assay [18]. In addition, the GI50 in assay [19] and in [20] was > 10 µM (inactive) throughout.
For `C=CCCCCCCCCC(=O)O` [UNDECYLENIC ACID], the GI50 in [1] was 122 µM (inactive); in assay [2], 132 µM (inactive); in [3], 94.2 µM (inactive); in assay [4], 142 µM (inactive); in assay [5], 125 µM (inactive); in [6] it was 116 µM (inactive). For the same compound, the GI50 is 155 µM (inactive) in assay [7]; 79.8 µM (inactive) in assay [8]; 112 µM (inactive) in assay [9]; 101 µM (inactive) in assay [10]; 145 µM (inactive) in assay [11]; 128 µM (inactive) in [12]. Moreover, the GI50 in assay [13] was 152 µM (inactive); in assay [14], 121 µM (inactive); in [15], 67 µM (inactive); in assay [16] it was 103 µM (inactive); in assay [17], 149 µM (inactive); in assay [18], 105 µM (inactive). Moreover, the GI50 is 80.7 µM (inactive) in [19] and 85.3 µM (inactive) in assay [20].
Consider `C=C(C)C(=O)OC1CCC2(C)C(CCC3C2CCC2(C)C(c4ccc(=O)oc4)CC4OC432)C1` (stereo not given), for which the GI50 in [1] was 3.49 µM (inactive); in [2], 5.75 µM (inactive); in assay [3], 1.25 µM (inactive); in assay [4], 8.13 µM (inactive); in [5] it was 6.34 µM (inactive); in assay [6], 2.42 µM (inactive). Moreover, the GI50 in assay [7] was 9.42 µM (inactive); in assay [8], 3.33 µM (inactive); in assay [9], 6.73 µM (inactive); in assay [10], 0.57 µM (active); in assay [11] it was 30.4 µM (inactive); in assay [12] it was 3.26 µM (inactive). For the same compound, the GI50 in assay [13] was 2.69 µM (inactive); in [14], 5.51 µM (inactive); in [15], 4.57 µM (inactive); in [16] it was 2.31 µM (inactive); in [17], 3.61 µM (inactive); in assay [18], 2.95 µM (inactive). Besides, the GI50 was 4.75 µM (inactive) in assay [19] and 4.28 µM (inactive) in [20].

The values above are taken from ChEMBL document CHEMBL1201862, “PubChem BioAssay data set” (2004).
